Data on 19 compounds can be found in ChEMBL document CHEMBL3046228, “Synthesis of new bicyclo[4.1.0]heptane-2,4-dione derivatives and their herbicidal activity” (J Pestic Sci, 2007).

Data set [1] relates to Amaranthus retroflexus. The data set can be described thus: Herbicidal activity against Amaranthus retroflexus assessed as induction of plant damage applied through foliar spraying. In kind it is functional.
For data set [2], the system named is Zea mays. The data set can be described thus: Phytotoxicity against Zea mays (maize) assessed as induction of plant damage applied through foliar spraying. The format is organism-based. To be noted: in vivo, other.
For data set [3], the system named is Abutilon theophrasti. As to the kind of experiment: Herbicidal activity against Abutilon theophrasti (velvetleaf) assessed as induction of plant damage applied through foliar spraying. In kind it is functional.
Data set [4] has as its system Digitaria sanguinalis. As to the kind of experiment: Herbicidal activity against Digitaria sanguinalis (hairy crabgrass) assessed as induction of plant damage applied through foliar spraying. In kind it is functional.
The test system of data set [5] is Setaria faberi. The data set can be described thus: Herbicidal activity against Setaria faberi (Giant Foxtail) assessed as induction of plant damage applied through foliar spraying. The format is functional.

The structures appear in SMILES notation.

For the compound `CC1CCC(=O)C(C(=O)c2ccc(Cl)cc2[N+](=O)[O-])C1=O` (stereo not given), the ED80 is 250 gAi/ha in data set [1], 63 gAi/ha in data set [3] and 63 gAi/ha in data set [4]. Besides, the ED0 in data set [2] is recorded as 125 gAi/ha.
With `CS(=O)(=O)c1ccc(C(=O)C2C(=O)CCCC2=O)c(Cl)c1` [SULCOTRIONE], the ED80 in data set [1] is reported as 250 gAi/ha; in data set [3], 16 gAi/ha; in data set [5], 250 gAi/ha; in data set [4] it was 125 gAi/ha. Besides, the ED0 in data set [2] is 250 gAi/ha.
As to `CCCC1CC(=O)C(C(=O)c2ccc(Cl)cc2[N+](=O)[O-])C(=O)C1` (stereo not given), the ED80 was 2000 gAi/ha in data set [1], more than 2000 gAi/ha in data set [3] and 500 gAi/ha in data set [4]. In addition, in data set [2], the ED0 is on record as 125 gAi/ha.
In the case of `Cc1cc(S(C)(=O)=O)ccc1C(=O)C1C(=O)C[C@H]2C[C@H]2C1=O` (relative stereo), the ED80 was 63 gAi/ha in data set [1], 16 gAi/ha in data set [3], 250 gAi/ha in data set [5] and 250 gAi/ha in data set [4]. Also, in data set [2], the ED0 came to 250 gAi/ha.
For the compound `O=C1C[C@H]2C[C@H]2C(=O)C1C(=O)c1ccc(Cl)cc1[N+](=O)[O-]` (relative stereo), the ED80 in data set [1] was 63 gAi/ha; in data set [3] it was 16 gAi/ha; in data set [5], 125 gAi/ha; in data set [4], 63 gAi/ha. Moreover, in data set [2], the ED0 came to 16 gAi/ha.
Take `O=C1C[C@H]2C[C@H]2C(=O)C1C(=O)c1ccc(C(F)(F)F)cc1[N+](=O)[O-]` (relative stereo): the ED80 in data set [1] worked out at 63 gAi/ha; in data set [3] it was 16 gAi/ha; in data set [5], 63 gAi/ha; in data set [4], 63 gAi/ha. In addition, the ED0 in data set [2] stood at 31 gAi/ha.
Turning to `CC1CC(=O)C(C(=O)c2ccc(Cl)cc2[N+](=O)[O-])C(=O)C1` (stereo not given), the ED80 turned out to be 125 gAi/ha in data set [1], 125 gAi/ha in data set [3], 16 gAi/ha in data set [5] and 31 gAi/ha in data set [4]. For the same compound, the ED0 in data set [2] came to 63 gAi/ha.
On to `O=C1CC2CCCC2C(=O)C1C(=O)c1ccc(Cl)cc1[N+](=O)[O-]` (stereo not given), for which the ED80 in data set [1] turned out to be 500 gAi/ha; in data set [3] it was 500 gAi/ha; in data set [5], 500 gAi/ha; in data set [4], 250 gAi/ha. Further, the ED0 in data set [2] was 63 gAi/ha.
In the case of `CSCC1CC(=O)C(C(=O)c2ccc(Cl)cc2[N+](=O)[O-])C(=O)C1` (stereo not given), the ED80 in data set [1] was 500 gAi/ha; in data set [3], 63 gAi/ha; in data set [5] it was 125 gAi/ha; in data set [4], 250 gAi/ha. In addition, the ED0 in data set [2] was determined as 125 gAi/ha.
Take `CS(=O)(=O)c1ccc(C(=O)C2C(=O)C[C@H]3C[C@H]3C2=O)c([N+](=O)[O-])c1` (relative stereo): the ED80 in data set [1] was 63 gAi/ha; in data set [3], 16 gAi/ha; in data set [5] it was 250 gAi/ha; in data set [4], 125 gAi/ha. Further, in data set [2], the ED0 was 250 gAi/ha.
`O=C1CC2CCCCC2C(=O)C1C(=O)c1ccc(Cl)cc1[N+](=O)[O-]` (stereo not given): the ED80 in data set [1] turned out to be 2000 gAi/ha; in data set [3], 500 gAi/ha; in data set [5], 2000 gAi/ha; in data set [4], 500 gAi/ha. In addition, the ED0 in data set [2] was determined as 500 gAi/ha.
For the compound `COc1ccc(C(=O)C2C(=O)C[C@H]3C[C@H]3C2=O)c([N+](=O)[O-])c1` (relative stereo), the ED80 in data set [1] worked out at 500 gAi/ha; in data set [3], 125 gAi/ha; in data set [5], 125 gAi/ha; in data set [4] it was 125 gAi/ha. The ED0 in data set [2] came out at 31 gAi/ha.
With `CC1CC(=O)C(C(=O)c2ccc(Cl)cc2[N+](=O)[O-])C(=O)C1C` (stereo not given), the ED80 in data set [1] is given as 500 gAi/ha; in data set [3] it was 125 gAi/ha; in data set [5], 31 gAi/ha; in data set [4] it was 31 gAi/ha. For the same compound, in data set [2], the ED0 was 125 gAi/ha.
`CCCCC1CC(=O)C(C(=O)c2ccc(Cl)cc2[N+](=O)[O-])C(=O)C1` (stereo not given): the values for the ED80 in data set [1], in data set [3] and in data set [4] were more than 2000 gAi/ha, 500 gAi/ha and more than 2000 gAi/ha, respectively. The ED0 in data set [2] is 1000 gAi/ha.
For the compound `CC1(C)CC(=O)C(C(=O)c2ccc(Cl)cc2[N+](=O)[O-])C(=O)C1`, the ED80 in data set [1] is reported as 2000 gAi/ha; in data set [3], 125 gAi/ha; in data set [4] it was 250 gAi/ha. Also, in data set [2], the ED0 is recorded as 500 gAi/ha.
On to `CS(=O)(=O)c1ccc(C(=O)C2C(=O)C[C@H]3C[C@H]3C2=O)c(Cl)c1` (relative stereo), for which the ED80 in data set [1] is recorded as 31 gAi/ha; in data set [3], 16 gAi/ha; in data set [5], 63 gAi/ha; in data set [4], 125 gAi/ha. Besides, the ED0 in data set [2] came to 125 gAi/ha.
As to `COCC1CC(=O)C(C(=O)c2ccc(Cl)cc2[N+](=O)[O-])C(=O)C1` (stereo not given), the values for the ED80 in data set [1], in data set [3] and in data set [4] were 125 gAi/ha, 125 gAi/ha and 500 gAi/ha, respectively. Also, the ED0 in data set [2] is recorded as 125 gAi/ha.
Take `O=C1CCCC(=O)C1C(=O)c1ccc(Cl)cc1[N+](=O)[O-]`: the ED80 in data set [1] is on record as 125 gAi/ha; in data set [3], 31 gAi/ha; in data set [5], 500 gAi/ha; in data set [4] it was 250 gAi/ha. Besides, the ED0 in data set [2] came to 500 gAi/ha.
Consider `CSc1ccc(C(=O)C2C(=O)C[C@H]3C[C@H]3C2=O)c([N+](=O)[O-])c1` (relative stereo), for which the ED80 is 31 gAi/ha in data set [1], 16 gAi/ha in data set [3], 250 gAi/ha in data set [5] and 63 gAi/ha in data set [4]. Moreover, the ED0 in data set [2] is on record as 125 gAi/ha.
